≈ marks a conversion by molar mass, not a printed value. Read-outs that look alike come from different tables or passages of the source.
What was measured:
HIV-1 VLP assembly = assay: microbe, parasite or virus in culture; conditions: for IC50: Human immunodeficiency virus 1, 24 h; for SI (ratio CC50:IC50): selectivity index
Procedure: Cell culture medium was then harvested at 48 h pi, subjected to the 2-step ultracentrifugation analysis, and each gradient fraction probed for Gag polyprotein and luciferase activity, as above. […] The gradient fractions corresponding to the peak of luciferase activity were pooled, and the VLP contained in these fractions were pelleted, lysed and assayed for luciferase content.
Drug treatment was maintained for a further 24 h, and VLP released in the cell culture medium were pelleted through a sucrose cushion. The amounts of extracellular VLP recovered in the 48 h-pellets obtained in the presence of the different inhibitors were determined using the luciferase assays. After normalization to the luciferase activity determined in the corresponding cell lysates, the values of the ratio of VLP-incorporated to cell-associated luciferase activity were plotted versus the drug concentrations.
Sf9 cell culture supernatants were clarified by low-speed centrifugation, then VLP recovered using a two-step procedure comprising a sucrose-step gradient centrifugation, followed by an ultracentrifugation in linear D2O-sucrose gradient, [53]. (i) In the first step, VLP contained in the cell culture medium were pelleted through a sucrose cushion (20%, w:v, in TNE buffer; TNE: 100 mM NaCl, 10 mM Tris-HCl pH 7.4, 1 mM Na2EDTA) at 30 krpm for 1 h at 15°C in a Kontron TST55.5 rotor [12]. Pelleted VLP of step (i) were then gently resuspended in PBS (0.20–0.25 ml), and (ii) further analyzed by isopycnic ultracentrifugation in sucrose-D2O gradients, [53]. Linear gradients (10-ml total volume, 30–50%, w:v) were centrifuged for 18 h at 28 krpm in a Beckman SW41 rotor. The 50% sucrose solution was made in D2O buffered to pH 7.2 with NaOH, and the 30% sucrose solution was made in 10 mM Tris-HCl, pH 7.2, 150 mM NaCl, 5.7 mM Na2EDTA. Aliquots of 0.5 ml were collected from the top, and fractions analyzed for protein content by SDS-PAGE and immunoblotting, and by luciferase assay as described below.
Aliquots of Sf9 cells (10^6) were infected with two recombinant baculoviruses at equal multiplicity of infection (MOI of 10 PFU/cell, each). One expressed the HIV-1 Gag precursor (AcMNPV-Pr55Gag or control, p6-deleted AcMNPV-GagΔp6), the other the control Vpr protein (AcMNPV-Vpr) or the LucVpr fusion (AcMNPV-LucVpr). […] To avoid any interference with a possible effect of DMSO, DMSO was kept constant in volume in the different samples. […] Cells were harvested at 48 h pi, and extracellular VLP released in the culture medium were quantitated using luciferase assay. Membrane-enveloped VLP were pelleted and resuspended in lysis KDT buffer (KDT: 0.1 M potassium phosphate buffer, pH 7.8, 1 mM DTT, containing 0.2% Triton X100) for 30 min at 37°C with vortexing every 10 min. Luciferase activity associated with VLP was measured as previously described, using a Lumat LB-9501 luminometer (Berthold Technologies, Bad Wildbad, Germany). […] To compensate for eventual negative effects of drugs on LucVpr expression, the luciferase activity was measured in the corresponding cell lysates, obtained after lysis of the pelleted cells with KDT buffer. The results were expressed as relative light units (RLU) per µg protein. The values of the ratio of VLP-associated to intracellular luciferase activity were plotted versus the inhibitor concentration.

MTT cytotoxicity assay = format: cell-based, Spodoptera frugiperda; conditions: Spodoptera frugiperda, MTT assay, mean
Procedure: (§1) The cellular toxicity of the different compounds was evaluated using the MTT assays. […] The selectivity index (SI) was defined as the CC50 to IC50 ratio.

HIV-1 = conditions: read-out: mean IC50, maturation cleavage of CAp24-SP1 / virus infectivity; cited from earlier work
[1] = test system: HIV-1 VLP assembly and budding; assay: Electron microscopy of AcMNPV-Gag-infected Sf9 cells and released particles; format: cell-based; conditions: 5 and 10 µg/ml for 24 h at 24 h pi
Procedure: By contrast, control, untreated AcMNPV-Gag-infected Sf9 cells were decorated with VLP budding in abundance from the plasma membrane ( Fig. 8 , a; and also refer to [12], [28], [30], [32], [33], [53]).
Baculovirus-infected Sf9 cells were harvested at 48 h pi, pelleted, fixed with 2.5% glutaraldehyde in 0.1 M phosphate buffer, pH 7.5, post-fixed with osmium tetroxide (2% in H2O) and treated with 0.5% tannic acid solution in H2O. The specimens were dehydrated and embedded in Epon (Epon-812; Fulham, Latham, NY). Ultrathin sections were stained with 2.6% alkaline lead citrate and 0.5% uranyl acetate in 50% ethanol, and post-stained with 0.5% uranyl acetate solution in H2O [12], [28], [53]. Grids were examined under a Jeol JEM-1400 electron microscope, equiped with an ORIUS™ digitalized camera (Gatan France, 78113-Grandchamp). For statistical EM analyses, a minimum of 30 grid squares containing 10 to 20 cell sections each were examined for counting VLP budding at the cell surface, or budding in intracellular vesicular compartment.

Sf9 cells = assay: MTT cytotoxicity assay; format: cell-based, Spodoptera frugiperda
Procedure: as §1

[2] = test system: HIV-1 VLP assembly and budding; conditions: cited from earlier work
[3] = test system: HIV-1 VLP assembly and budding; conditions: 10 µg/ml (17 µM); AcMNPV-Gag-infected Sf9 cells; cited from earlier work
[4] = read-out: IC50 (µM), 50% inhibitory activity on VLP assembly, Sf9 cells coexpressing Pr55Gag and LucVpr, drug added at 24 h pi for 24 h, mean
[5] = read-out: IC50 (µg/ml), 50% inhibitory activity on VLP assembly, Sf9 cells coexpressing Pr55Gag and LucVpr, drug added at 24 h pi for 24 h, mean ± SEM, n = 4

Compound | IC50 (HIV-1 VLP assembly; [4]) [µM] | IC50 (HIV-1 VLP assembly; [5]) [µg/mL] | SI (ratio CC50:IC50) (HIV-1 VLP assembly) | CC50 (MTT cytotoxicity assay; Sf9 cells) [µM] | further results
C=C(C)[C@@H]1CC[C@]2(C(=O)O)CC[C@]3(C)[C@H](CC[C@@H]4[C@@]5(C)CC[C@H](O)C(C)(C)[C@@H]5CC[C@]43C)[C@@H]12 [BA, betulinic acid, reference compound] | 39.4 | 18 ± 3 | 1.1 | – | CC50 (MTT cytotoxicity assay): 43.8 µM
C=C(C)[C@@H]1CC[C@]2(C(=O)NCCN)CC[C@]3(C)C(CCC4[C@@]5(C)CC[C@H](OC(=O)CC(C)(C)C(=O)O)C(C)(C)C5CC[C@]43C)C12 (some centres unmarked) [EP-39, ethylene diamine-conjugated DSB] | – | – | – | 120 | IC50 (HIV-1): 0.016 µM
C=C(C)[C@@H]1CC[C@]2(C(=O)NC(CCCCNC(=O)OC(C)(C)C)C(=O)O)CC[C@]3(C)C(CCC4[C@@]5(C)CC[C@H](OC(=O)CC(C)(C)C(=O)O)C(C)(C)C5CC[C@]43C)C12 (some centres unmarked) [EP-47, ε-N-tert-butoxycarbonyl-lysine-conjugated DSB] | 1.9 | 1 to 2 | 13.0 | 24.7 | IC50 (µg/ml), 50% inhibitory activity on VLP assembly (HIV-1 VLP assembly; Sf9 cells coexpressing Pr55Gag and LucVpr, drug added at 24 h pi for 24 h, mean ± SEM, n = 4): 1.6 ± 0.5 µg/mL (≈ 1.97 µM); Effect on VLP assembly and budding (EM pattern) [1]: net inhibitory effect on VLP assembly and budding
C=C(C)[C@@H]1CC[C@]2(C(=O)NCCC(=O)O)CC[C@]3(C)C(CCC4[C@@]5(C)CC[C@H](OC(=O)CC(C)(C)C(=O)O)C(C)(C)C5CC[C@]43C)C12 (stereo partly drawn) [EP-48, beta-alanine-conjugated DSB] | – | – | – | 4.2 | Effect on VLP assembly (in words) (HIV-1 VLP assembly): no specific effect on VLP assembly; Cytotoxic effect (in words) (Sf9 cells): pronounced cytotoxic effect
C=C(C)[C@@H]1CC[C@]2(C(=O)NC(CCCCN)C(=O)O)CC[C@]3(C)C(CCC4[C@@]5(C)CC[C@H](OC(=O)CC(C)(C)C(=O)O)C(C)(C)C5CC[C@]43C)C12 (some centres unmarked) [EP-62, lysine-conjugated DSB with free lysine ε-NH2 group] | 4.8 | 3.4 ± 0.4 | 0.7 | 3.5 | Effect on VLP assembly (in words) (HIV-1 VLP assembly): no specific effect on VLP assembly; Cytotoxic effect (in words) (Sf9 cells): pronounced cytotoxic effect
C=C(C)[C@@H]1CC[C@]2(C(=O)O)CC[C@]3(C)[C@H](CC[C@@H]4[C@@]5(C)CC[C@H](OC(=O)CC(C)(C)C(=O)O)C(C)(C)[C@@H]5CC[C@]43C)[C@@H]12 [PA-457, 3-O-(3',3'-dimethylsuccinyl)-betulinic acid] | – | – | – | – | IC50 ([2]; immuno-radiochemical assay of VLP): 8 to 10 µM; IC50 on assembly and budding of HIV-1 VLP ([2]; insect cells expressing Pr55Gag, previous study ref 12): 5 to 6 µg/mL; Effect on VLP budding and egress [3]: totally abolished VLP budding and egress
C=C(C)[C@@H]1CC[C@]2(C(=O)NCC(=O)O)CC[C@]3(C)C(CCC4[C@@]5(C)CC[C@H](OC(=O)CC(C)(C)C(=O)O)C(C)(C)C5CC[C@]43C)C12 (some centres unmarked) [ST-327, Glycine-conjugated DSB] | 5.9 | 3.8 ± 1.6 | 5.3 | 31.1 | Effect on VLP assembly and budding (EM pattern) [1]: net inhibitory effect on VLP assembly and budding
